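Compound exposure: 48 hours, 5 concentrations, 96-well plates. At the GI50, growth is halved. TGI marks complete inhibition of growth.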
Assays:
Experiment in all cases: inhibition of tumour cell growth, NCI panel, 48 h
786-0 renal = tested on: 786-0 renal
A498 renal = tested on: A498 renal
A549 NSCLC = tested on: A549 NSCLC
ACHN renal = tested on: ACHN renal
BT-549 breast = tested on: BT-549 breast
CAKI-1 renal = tested on: CAKI-1 renal
COLO 205 colon = tested on: COLO 205 colon
DU-145 prostate = tested on: DU-145 prostate
EKVX NSCLC = tested on: EKVX NSCLC
HCC-2998 colon = tested on: HCC-2998 colon
HCT-116 colon = tested on: HCT-116 colon
HCT-15 colon = tested on: HCT-15 colon
HL-60(TB) leukemia = tested on: HL-60(TB) leukemia
HOP-62 NSCLC = tested on: HOP-62 NSCLC
HOP-92 NSCLC = tested on: HOP-92 NSCLC
HS 578T breast = tested on: HS 578T breast
HT29 colon = tested on: HT29 colon
KM12 colon = tested on: KM12 colon
M14 melanoma = tested on: M14 melanoma
MALME-3M melanoma = tested on: MALME-3M melanoma
MCF7 breast = tested on: MCF7 breast
MDA-MB-231 breast = tested on: MDA-MB-231 breast
MDA-MB-435 = tested on: MDA-MB-435
MOLT-4 leukemia = tested on: MOLT-4 leukemia
NCI-H226 lung = tested on: NCI-H226 lung
NCI-H23 lung = tested on: NCI-H23 lung
NCI-H460 lung = tested on: NCI-H460 lung
NCI-H522 lung = tested on: NCI-H522 lung
NCI/ADR-RES ovarian = tested on: NCI/ADR-RES ovarian
OVCAR-3 ovarian = tested on: OVCAR-3 ovarian
OVCAR-4 ovarian = tested on: OVCAR-4 ovarian
OVCAR-5 ovarian = tested on: OVCAR-5 ovarian
OVCAR-8 ovarian = tested on: OVCAR-8 ovarian
PC-3 prostate = tested on: PC-3 prostate
RPMI-8226 leukemia = tested on: RPMI-8226 leukemia
RXF 393 renal = tested on: RXF 393 renal
SF-268 CNS = tested on: SF-268 CNS
SF-295 CNS = tested on: SF-295 CNS
SF-539 CNS = tested on: SF-539 CNS
SK-MEL-2 melanoma = tested on: SK-MEL-2 melanoma
SK-MEL-5 melanoma = tested on: SK-MEL-5 melanoma
SK-OV-3 ovarian = tested on: SK-OV-3 ovarian
SNB-19 CNS = tested on: SNB-19 CNS
SNB-75 CNS = tested on: SNB-75 CNS
SR leukemia = tested on: SR leukemia
SW-620 colon = tested on: SW-620 colon
T-47D breast = tested on: T-47D breast
TK-10 renal = tested on: TK-10 renal
U251 CNS = tested on: U251 CNS
UACC-257 melanoma = tested on: UACC-257 melanoma
UACC-62 melanoma = tested on: UACC-62 melanoma
UO-31 renal = tested on: UO-31 renal
CCRF-CEM leukemia = tested on: CCRF-CEM leukemia
IGROV1 ovarian = tested on: IGROV1 ovarian
K-562 leukemia = tested on: K-562 leukemia
LOX IMVI melanoma = tested on: LOX IMVI melanoma
SK-MEL-28 melanoma = tested on: SK-MEL-28 melanoma
SN12C renal = tested on: SN12C renal

For N[C@]1(C(=O)O)C[C@@H]2C(Br)=NO[C@@H]2C1, the TGI (786-0 renal) was > 100 µM, the TGI (A498 renal) was > 100 µM and the TGI (A549 NSCLC) was > 100 µM. The TGI (ACHN renal) was > 100 µM, the TGI (BT-549 breast) was > 100 µM and the TGI (CAKI-1 renal) was > 100 µM. For the same compound, the TGI (COLO 205 colon) was > 100 µM, the TGI (DU-145 prostate) was > 100 µM and the TGI (EKVX NSCLC) was > 100 µM. The TGI (HCC-2998 colon) was > 100 µM, the TGI (HCT-116 colon) was > 100 µM and the TGI (HCT-15 colon) was > 100 µM. For the same compound, the TGI (HL-60(TB) leukemia) was > 100 µM, the TGI (HOP-62 NSCLC) was > 100 µM and the TGI (HOP-92 NSCLC) was > 100 µM. For the same compound, the TGI (HS 578T breast) was > 100 µM, the TGI (HT29 colon) was > 100 µM and the TGI (KM12 colon) was > 100 µM. For the same compound, the TGI (M14 melanoma) was > 100 µM, the TGI (MALME-3M melanoma) was > 100 µM and the TGI (MCF7 breast) was > 100 µM. For the same compound, the TGI (MDA-MB-231 breast) was > 100 µM, the TGI (MDA-MB-435) was > 100 µM and the TGI (MOLT-4 leukemia) was > 100 µM. For the same compound, the TGI (NCI-H226 lung) was > 100 µM, the TGI (NCI-H23 lung) was > 100 µM and the TGI (NCI-H460 lung) was > 100 µM. The TGI (NCI-H522 lung) was > 100 µM, the TGI (NCI/ADR-RES ovarian) was > 100 µM and the TGI (OVCAR-3 ovarian) was > 100 µM. The TGI (OVCAR-4 ovarian) was > 100 µM, the TGI (OVCAR-5 ovarian) was > 100 µM and the TGI (OVCAR-8 ovarian) was > 100 µM. For the same compound, the TGI (PC-3 prostate) was > 100 µM, the TGI (RPMI-8226 leukemia) was > 100 µM and the TGI (RXF 393 renal) was > 100 µM. The TGI (SF-268 CNS) was > 100 µM, the TGI (SF-295 CNS) was > 100 µM and the TGI (SF-539 CNS) was > 100 µM. The TGI (SK-MEL-2 melanoma) was > 100 µM, the TGI (SK-MEL-5 melanoma) was > 100 µM and the TGI (SK-OV-3 ovarian) was > 100 µM. The TGI (SNB-19 CNS) was > 100 µM, the TGI (SNB-75 CNS) was > 100 µM and the TGI (SR leukemia) was > 100 µM. The TGI (SW-620 colon) was > 100 µM, the TGI (T-47D breast) was > 100 µM and the TGI (TK-10 renal) was > 100 µM. The TGI (U251 CNS) was > 100 µM, the TGI (UACC-257 melanoma) was > 100 µM and the TGI (UACC-62 melanoma) was > 100 µM. For the same compound, the TGI (UO-31 renal) was > 100 µM.
In the case of CCn1c(=O)c(Oc2ccc(F)cc2F)cc2cnc(NC3CCOCC3)nc21, the GI50 (786-0 renal) is reported as > 25 µM, the TGI (786-0 renal) is reported as > 25 µM and the GI50 (A498 renal) is reported as 6.94 µM. For the same compound, the TGI (A498 renal) was > 25 µM, the GI50 (A549 NSCLC) was > 25 µM and the TGI (A549 NSCLC) was > 25 µM. For the same compound, the GI50 (ACHN renal) was > 25 µM, the TGI (ACHN renal) was > 25 µM and the GI50 (BT-549 breast) was > 25 µM. For the same compound, the TGI (BT-549 breast) was > 25 µM, the GI50 (CAKI-1 renal) was > 25 µM and the TGI (CAKI-1 renal) was > 25 µM. The GI50 (CCRF-CEM leukemia) was > 25 µM, the TGI (CCRF-CEM leukemia) was > 25 µM and the GI50 (COLO 205 colon) was > 25 µM. For the same compound, the TGI (COLO 205 colon) was > 25 µM, the GI50 (DU-145 prostate) was > 25 µM and the TGI (DU-145 prostate) was > 25 µM. The GI50 (HCC-2998 colon) was > 25 µM, the TGI (HCC-2998 colon) was > 25 µM and the GI50 (HCT-116 colon) was > 25 µM. For the same compound, the TGI (HCT-116 colon) was > 25 µM, the GI50 (HCT-15 colon) was > 25 µM and the TGI (HCT-15 colon) was > 25 µM. The GI50 (HL-60(TB) leukemia) was > 14.1 µM, the TGI (HL-60(TB) leukemia) was > 25 µM and the GI50 (HOP-62 NSCLC) was > 25 µM. The TGI (HOP-62 NSCLC) was > 25 µM, the GI50 (HOP-92 NSCLC) was 3.19 µM and the TGI (HOP-92 NSCLC) was > 25 µM. For the same compound, the GI50 (HS 578T breast) was > 16.4 µM, the TGI (HS 578T breast) was > 25 µM and the GI50 (HT29 colon) was > 25 µM. The TGI (HT29 colon) was > 25 µM, the GI50 (IGROV1 ovarian) was > 25 µM and the TGI (IGROV1 ovarian) was > 25 µM. For the same compound, the GI50 (K-562 leukemia) was > 25 µM, the TGI (K-562 leukemia) was > 25 µM and the GI50 (KM12 colon) was > 25 µM. For the same compound, the TGI (KM12 colon) was > 25 µM, the GI50 (LOX IMVI melanoma) was > 25 µM and the TGI (LOX IMVI melanoma) was > 25 µM. The GI50 (M14 melanoma) was > 25 µM, the TGI (M14 melanoma) was > 25 µM and the GI50 (MALME-3M melanoma) was > 25 µM. The TGI (MALME-3M melanoma) was > 25 µM, the GI50 (MCF7 breast) was > 25 µM and the TGI (MCF7 breast) was > 25 µM. The GI50 (MDA-MB-231 breast) was > 25 µM, the TGI (MDA-MB-231 breast) was > 25 µM and the GI50 (MDA-MB-435) was > 25 µM. For the same compound, the TGI (MDA-MB-435) was > 25 µM, the GI50 (MOLT-4 leukemia) was > 25 µM and the TGI (MOLT-4 leukemia) was > 25 µM. The GI50 (NCI-H226 lung) was > 25 µM, the TGI (NCI-H226 lung) was > 25 µM and the GI50 (NCI-H23 lung) was > 25 µM. For the same compound, the TGI (NCI-H23 lung) was > 25 µM, the GI50 (NCI-H460 lung) was > 25 µM and the TGI (NCI-H460 lung) was > 25 µM. For the same compound, the GI50 (NCI-H522 lung) was > 25 µM, the TGI (NCI-H522 lung) was > 25 µM and the GI50 (NCI/ADR-RES ovarian) was > 25 µM. The TGI (NCI/ADR-RES ovarian) was > 25 µM, the GI50 (OVCAR-3 ovarian) was > 25 µM and the TGI (OVCAR-3 ovarian) was > 25 µM. For the same compound, the GI50 (OVCAR-4 ovarian) was > 25 µM, the TGI (OVCAR-4 ovarian) was > 25 µM and the GI50 (OVCAR-5 ovarian) was > 25 µM. The TGI (OVCAR-5 ovarian) was > 25 µM, the GI50 (OVCAR-8 ovarian) was > 25 µM and the TGI (OVCAR-8 ovarian) was > 25 µM. For the same compound, the GI50 (PC-3 prostate) was > 25 µM, the TGI (PC-3 prostate) was > 25 µM and the GI50 (RPMI-8226 leukemia) was > 25 µM. For the same compound, the TGI (RPMI-8226 leukemia) was > 25 µM, the GI50 (RXF 393 renal) was > 18.7 µM and the TGI (RXF 393 renal) was > 25 µM. For the same compound, the GI50 (SF-268 CNS) was > 25 µM, the TGI (SF-268 CNS) was > 25 µM and the GI50 (SF-295 CNS) was > 25 µM. For the same compound, the TGI (SF-295 CNS) was > 25 µM, the GI50 (SF-539 CNS) was > 25 µM and the TGI (SF-539 CNS) was > 25 µM. For the same compound, the GI50 (SK-MEL-2 melanoma) was > 25 µM, the TGI (SK-MEL-2 melanoma) was > 25 µM and the GI50 (SK-MEL-28 melanoma) was > 25 µM. For the same compound, the TGI (SK-MEL-28 melanoma) was > 25 µM, the GI50 (SK-MEL-5 melanoma) was > 25 µM and the TGI (SK-MEL-5 melanoma) was > 25 µM. For the same compound, the GI50 (SK-OV-3 ovarian) was > 25 µM, the TGI (SK-OV-3 ovarian) was > 25 µM and the GI50 (SN12C renal) was > 25 µM. The TGI (SN12C renal) was > 25 µM, the GI50 (SNB-19 CNS) was > 25 µM and the TGI (SNB-19 CNS) was > 25 µM. For the same compound, the GI50 (SNB-75 CNS) was > 25 µM, the TGI (SNB-75 CNS) was > 25 µM and the GI50 (SR leukemia) was > 25 µM. For the same compound, the TGI (SR leukemia) was > 25 µM, the GI50 (SW-620 colon) was > 25 µM and the TGI (SW-620 colon) was > 25 µM. The GI50 (T-47D breast) was > 25 µM, the TGI (T-47D breast) was > 25 µM and the GI50 (TK-10 renal) was 19.7 µM. The TGI (TK-10 renal) was > 25 µM, the GI50 (U251 CNS) was > 25 µM and the TGI (U251 CNS) was > 25 µM. The GI50 (UACC-257 melanoma) was > 25 µM, the TGI (UACC-257 melanoma) was > 25 µM and the GI50 (UACC-62 melanoma) was > 25 µM. For the same compound, the TGI (UACC-62 melanoma) was > 25 µM, the GI50 (UO-31 renal) was 5.47 µM and the TGI (UO-31 renal) was > 15.2 µM.

— PubChem BioAssay (NCI)
